Where two headings read alike, the source gives them in different places.
Key:
[1] = system: hiPSC-derived neurons co-cultured with human primary astrocytes in 3D; test: Ca2+ transient oscillation assay (FDSS), 3D spheroids; format: cell-based; details: 60 min
Excerpt: (§1) In this study, we used cryopreserved excitatory neurons that were differentiated from human induced pluripotent stem cells (hiPSCs; Cat #: EX-SeV-CW50065) (Elixirgen Scientific, Inc., Baltimore, MD, USA). The hiPSCs used, namely, CW50065 were derived from a healthy person and distributed by the California Institute of Regenerative Medicine Human Induced Pluripotent Stem Cell Repository. Human iPSC-derived excitatory neurons were differentiated from CW50065 using a proprietary cocktail of differentiation-inducing factors called Quick-Neuron™ EX-SeV (Batch number: EX-SeV-CW50065-L; Elixirgen Scientific, Inc.), cryopreserved 3 days after differentiation induction and distributed. Human iPSC-derived excitatory neurons were recovered from cryopreservation and maintained essentially as instructed by the manufacturer.
(§2) Cryopreserved human primary astrocytes (#N7805100, Thermo Fisher Scientific, Waltham, MA, USA) were recovered as instructed by the manufacturer and seeded in a 10 cm dish at the density of 2,000,000 cells. The culture was maintained using the Human Astrocytes Kit (#N7805200, Thermo Fisher Scientific) for 12 days. Half of the culture medium was replaced with fresh medium every 2–3 days during the culture period. These astrocytes were harvested using StemPro™ Accutase™ Cell Dissociation Reagent (#A1110501, Thermo Fisher Scientific) when they reached confluency. These cells were cryopreserved in STEM-CELLBANKER® GMP grade (ZENOGEN PHARMA, Kohriyama, Fukushima Japan) at the density of 2,000,000 cells per vial as working stocks for co-culture with neurons in 2D and 3D conditions described below. After a working stock was recovered, astrocytes were directly mixed with hiPSC-derived neurons for plating without further expansion.
We used U-shaped-bottom 96-well plates (#174925, Thermo Fisher Scientific) without any prior coating to make a spheroid in each well. Neurons and astrocytes were seeded and maintained as described for 2D cultures, except for the following modifications. First, neurons and astrocytes were seeded in each well of the 96-well plates at the density of 8000 hiPSC neurons with 8000 human primary astrocytes (8000)/well (ratio 1:1). Second, when the differentiation of excitatory neurons was completed one week after seeding, cells were fed with BrainPhys^TM Neuronal Medium (#05793, […] Technologies, Vancouver, BC, Canada) supplemented with 2% SM1 Neuronal Supplement, 1% N2 Supplement-A, and 10% Neuron culture medium for 5 weeks.
Cells maintained as spheroids (3D) in the U-shaped-bottom 96-well plates were transferred into 384-well spheroid plates (#4516, Merck, Corning, NY, USA) with 25 µL of the culture medium. A Ca^2+-indicating dye solution including […] was prepared using the EarlyTox™ Cardiotoxicity Kit (#R8211, Molecular Devices, LLC, San Jose, CA, USA) according to the manufacturer. Then, the same volume of the dye solution was dispensed into each well.
(§3) Prior to the fluorescence measurements, all wells to be measured were treated with 0.04% dimethyl sulfoxide (DMSO) to stabilize the oscillation signal. The first recording started 10 min after the addition of DMSO for each plate for 20 min. The effects of the test compound were recorded again starting 60 min after the administration of compounds, for 20 min.
Twenty-five compounds (Table 1) were first dissolved in either DMSO (most compounds) or distilled water depending on the compound, and further diluted with PBS to produce stock solutions concentrated 10-fold. Then, 5 μL of each compound solution was injected into each well using an automatic pipetting robot (#4505, ASSIST PLUS pipetting robot, Integra Biosciences Corp., Hudson, NH, USA), so that the final concentration of each compound was 1-fold nominal in the well.

[2] = system: hiPSC-derived neurons co-cultured with human primary astrocytes in 2D; test: Ca2+ transient oscillation assay (FDSS), 2D co-culture; format: cell-based; details: for activation at 1.11 µM / activation at 3.33 µM / activation at 10 µM / activation at 30 µM: Homo sapiens, 1 h, 60 min
Excerpt: as §1, §2
Live neurons (hiPSC neurons) and human primary astrocytes were recovered from cryopreservation as described above and seeded in each well of 384-well plates at the density of 10,000 cells (HiPSC-cortical neurons) and human primary astrocytes at 2500 cells (ratio 4:1). These co-cultures were maintained under the medium conditions recommended by the manufacturer, namely Medium N(G2P), to complete the differentiation of excitatory neurons for the first week. […] Half of the culture medium was replaced with fresh medium every 3–4 days during the culture period.
After the incubation, the culture medium containing Cal-520 was replaced with 50 μL of HBSS supplemented with 0.1 mM MgCl2, 2 mM CaCl2, 10 mM HEPES, and 10 mM glucose and incubated at 37 ℃ for 15 min.
as §3
Twenty-five compounds (Table 1) were first dissolved in either DMSO (most compounds) or distilled water depending on the compound, and further diluted with PBS to produce stock solutions concentrated 10-fold. […] The final concentration of DMSO was adjusted to 0.1%. Changes in the fluorescence intensity (FI) produced by Ca^2+ flux were measured at 37 °C for all wells of a 384-well plate simultaneously using the FDSS/µCell system (#C13299, Hamamatsu Photonics, Hamamatsu, Shizuoka, Japan). The excitation and the emission wavelengths were 470 nm and 540 nm, respectively. The recording duration was 20 min with a sampling frequency of 2 Hz for cells cultured under 2D conditions and 10 Hz for cells cultured under 3D conditions.

[3] = read-out: Area under the curve - 2D Mean
[4] = read-out: Peak amplitude - 2D Mean
[5] = read-out: Peak-to-peak interval - 2D Mean

In the case of `OC(c1cc(C(F)(F)F)nc2c(C(F)(F)F)cccc12)C1CCCCN1` (centres unmarked) [Mefloquine], the “Area under the curve - 3D Mean” value ([1]; 1.11 µM) is reported as 159.0 % change from baseline, the “Peak Number—3D Mean” value ([1]; 1.11 µM) is reported as 2.8 % change from baseline and the “Peak amplitude - 3D Mean” value ([1]; 1.11 µM) is reported as 149.7 % change from baseline. For the same compound, the “Peak width - 3D Mean” value ([1]; 1.11 µM) was 2.6 % change from baseline, the “Peak-to-peak interval - 3D Mean” value ([1]; 1.11 µM) was 7.1 % change from baseline and the “Area under the curve - 3D Mean” value ([1]; 3.33 µM) was 143.4 % change from baseline. The “Peak Number—3D Mean” value ([1]; 3.33 µM) was −11.1 % change from baseline, the “Peak amplitude - 3D Mean” value ([1]; 3.33 µM) was 139.0 % change from baseline and the “Peak width - 3D Mean” value ([1]; 3.33 µM) was 1.4 % change from baseline. For the same compound, the “Peak-to-peak interval - 3D Mean” value ([1]; 3.33 µM) was 1.7 % change from baseline, the “Area under the curve - 3D Mean” value ([1]; 10 µM) was 135.6 % change from baseline and the “Peak Number—3D Mean” value ([1]; 10 µM) was 7.2 % change from baseline. For the same compound, the “Peak amplitude - 3D Mean” value ([1]; 10 µM) was 135.0 % change from baseline, the “Peak width - 3D Mean” value ([1]; 10 µM) was −1.5 % change from baseline and the “Peak-to-peak interval - 3D Mean” value ([1]; 10 µM) was 12.8 % change from baseline. For the same compound, the “Area under the curve - 3D Mean” value ([1]; 30 µM) was 74.4 % change from baseline, the “Peak Number—3D Mean” value ([1]; 30 µM) was −3.7 % change from baseline and the “Peak amplitude - 3D Mean” value ([1]; 30 µM) was 99.9 % change from baseline. For the same compound, the “Peak width - 3D Mean” value ([1]; 30 µM) was −10.9 % change from baseline, the “Peak-to-peak interval - 3D Mean” value ([1]; 30 µM) was 8.3 % change from baseline and the “effect on peak number / Ca2+ neuronal oscillations, in words” value ([2]; 2D format) was “significantly reduced peak number”. The activation at 1.11 µM [2, 3] was 14.8%, the activation at 1.11 µM ([2]; read-out: Peak Number—2D Mean) was -30.8% and the activation at 1.11 µM [2, 4] was 0.5%. It also gave an activation at 1.11 µM ([2]; read-out: Peak width - 2D Mean) of 15.8%, an activation at 1.11 µM [2, 5] of 25% and an activation at 3.33 µM [2, 3] of -47.2%. For the same compound, the activation at 3.33 µM ([2]; read-out: Peak Number—2D Mean) was 16.2%, the activation at 3.33 µM [2, 4] was -21.2% and the activation at 3.33 µM ([2]; read-out: Peak width - 2D Mean) was -47%. It also gave an activation at 3.33 µM [2, 5] of 48.2%, an activation at 10 µM [2, 3] of -100% and an activation at 10 µM ([2]; read-out: Peak Number—2D Mean) of -100%. It also gave an activation at 10 µM [2, 4] of -100%, an activation at 10 µM ([2]; read-out: Peak width - 2D Mean) of -100% and an activation at 10 µM [2, 5] of -100%. For the same compound, the activation at 30 µM [2, 3] was -100%, the activation at 30 µM ([2]; read-out: Peak Number—2D Mean) was -100% and the activation at 30 µM [2, 4] was -100%. The activation at 30 µM ([2]; read-out: Peak width - 2D Mean) was -100% and the activation at 30 µM [2, 5] was -100%.
